{
  "source": "patent US8055452B2",
  "about": "“Identification, monitoring and treatment of disease and characterization of biological condition using gene expression profiles” (Life Technologies Corporation, priority 2001, dated 2011)",
  "key": {"[1]": {"test_system": "inflammation index (Inflammation Gene Expression Panel loci)", "test": "Inflammation index in rheumatoid arthritis patients under therapy", "format": "in vivo, human", "source_text": "FIG. 17A further illustrates the consistency of inflammatory gene expression, illustrated here with respect to 7 loci of (of the Inflammation Gene Expression Panel of Table 1), in a population of 44 normal, undiagnosed blood donors. For each individual locus is shown the range of values lying within ±2 standard deviations of the mean expression value, which corresponds to 95% of a normally distributed population. Notwithstanding the great width of the confidence interval (95%), the measured gene expression value (ΔCT)—remarkably—still lies within 10% of the mean, regardless of the expression level involved. As described in further detail below, for a given biological condition an index can be constructed to provide a measurement of the condition. This is possible as a result of the conjunction of two circumstances: (i) there is a remarkable consistency of Gene Expression Profiles with respect to a biological condition across a population and (ii) there can be employed procedures that provide substantially reproducible measurement of constituents in a Gene Expression Panel giving rise to a Gene Expression Profile, under measurement conditions wherein specificity and efficiencies of amplification for all constituents of the panel are substantially similar and which therefore provides a measurement of a biological condition. Accordingly, a function of the expression values of representative constituent loci of FIG. 17A is here used to generate an inflammation index value, which is normalized so that a reading of 1 corresponds to constituent expression values of healthy subjects, as shown in the right-hand portion of FIG. 17A.\nIn FIG. 17B, an inflammation index value was determined for each member of a population of 42 normal undiagnosed blood donors, and the resulting distribution of index values, shown in the figure, can be seen to approximate closely a normal distribution, notwithstanding the relatively small population size. The values of the index are shown relative to a 0-based median, with deviations from the median calibrated in standard deviation units. Thus […] of the population lies within +1 and −1 of a 0 value.\nFIG. 17C illustrates the use of the same index as FIG. 17B, where the inflammation median for a normal population has been set to zero and both normal and diseased subjects are plotted in standard deviation units relative to that median. An inflammation index value was determined for each member of a normal, undiagnosed population of 70 individuals (black bars). The resulting distribution of index values, shown in FIG. 17C, can be seen to approximate closely a normal distribution. Similarly, index values were calculated for individuals from two diseased population groups, (1) rheumatoid arthritis patients treated with methotrexate (MTX) who are about to change therapy to more efficacious drugs (e.g., TNF inhibitors) (hatched bars), and (2) rheumatoid arthritis patients treated with disease modifying anti-rheumatoid drugs (DMARDS) other than MTX, who are about to change therapy to more efficacious drugs (e.g., MTX). […] This figure thus illustrates the utility of an index to derived from Gene Expression Profile data to evaluate disease status and to provide an objective and quantifiable treatment objective. When these two populations were treated appropriately, index values from both populations returned to a more normal distribution (data not shown here).\nThis subject in fact was also on a regimen of an anti-inflammation steroid (prednisone) that was being tapered; within approximately one week after the inflammation index was sampled, the subject experienced a significant flare of clinical symptoms."}, "[2]": {"test_system": "IL1A, IL1B, TNF, IFNG and IL10", "test": "Acute Inflammation Index from whole blood gene expression of treated human subject", "format": "in vivo", "conditions": "single patient with optic neuritis; oral prednisone at 60 mg per day tapered to 10 mg per day, after IV steroid", "source_text": "(§1) For measuring the amount of a particular RNA in a sample, we have used methods known to one of ordinary skill in the art to extract and quantify transcribed RNA from a sample with respect to a constituent of a Gene Expression Panel. (See detailed protocols below. Also see PCT application publication number WO 98/24935 herein incorporated by reference for RNA analysis protocols). Briefly, RNA is extracted from a sample such as a tissue, body fluid, or culture medium in which a population of a subject might be growing. For example, cells may be lysed and RNA eluted in a suitable solution in which to conduct a DNAse reaction. First strand synthesis may be performed using a reverse transcriptase. Gene amplification, more specifically quantitative PCR assays, can then conducted and the gene of interest size calibrated against a marker such as 18S rRNA (Hirayama et al., Blood 92, 1998: 46-52). Samples are measured in multiple duplicates, for example, 4 replicates. Relative quantitation of the mRNA is determined by the difference in threshold cycles between the internal control and the gene of interest In an embodiment of the invention, quantitative PCR is performed using amplification, reporting agents and instruments such as those supplied commercially by Applied Biosystems (Foster City, Calif.). […]"}, "[3]": {"test_system": "Inflammation Gene Expression Panel of Table 1 (24 of 48 loci)", "test": "Inflammation Gene Expression Panel in whole blood after single oral dose of prednisone", "format": "in vivo", "conditions": "single human subject, single 60 mg oral dose", "source_text": "as §1"}, "[4]": {"test_system": "5 genes of the Inflammation Gene Expression Panel", "test": "Whole blood samples after prednisone dose, challenged with lipopolysaccharide, gene expression profile", "format": "in vivo, human", "conditions": "challenged with 0.1 ng/ml lipopolysaccharide", "description": "The samples were taken at the time of administration (t=0) of the prednisone, then at two and 24 hours after such administration. Each whole blood sample was challenged by the addition of 0.1 ng/ml of lipopolysaccharide (a Gram-negative endotoxin) and a gene expression profile of the sample, post-challenge, was determined."}, "[5]": {"test_system": "inflammation index (Inflammation Gene Expression Panel loci)", "test": "Inflammation index in subject with inflammatory bowel disease", "format": "in vivo, human", "conditions": "single subject with inflammatory bowel disease", "source_text": "FIG. 24 illustrates use of the inflammation index for assessment of a single subject suffering from inflammatory bowel disease, for whom treatment with Remicade was initiated in three doses. […] Again, the index, besides providing a measure of biological condition, is here used to measure the effectiveness of therapy (Remicade), as well as to provide a target for therapeutic intervention in terms of both dose and schedule."}, "[6]": {"test_system": "inflammation index (Inflammation Gene Expression Panel loci)", "conditions": "studies have shown; cited from earlier work"}, "[7]": {"test_system": "Inflammation 48A and 48B loci; bacterial Gene Expression Panel of 24 genes", "test": "Whole blood gene expression response to infectious agents or their products", "format": "cell-based", "conditions": "E. coli filtrate with added polymyxin B vs filtrate alone", "source_text": "FIGS. 27 through 41 illustrate the use of gene expression panels in early identification and monitoring of infectious disease. These figures plot the response, in expression products of the genes indicated, in whole blood, to the administration of various infectious agents or products associated with infectious agents. In each figure, the gene expression levels are “calibrated”, as that term is defined herein, in relation to baseline expression levels determined with respect to the whole blood prior to administration of the relevant infectious agent. […] The concentration change is shown ratiometrically, and the baseline level of 1 for a particular gene locus corresponds to an expression level for such locus that is the same, monitored at the relevant time after addition of the infectious agent or other stimulus, as the expression level before addition of the stimulus. […]\nFIG. 27 uses a novel bacterial Gene Expression Panel of 24 genes, developed to discriminate various bacterial conditions in a host biological system. […] The final concentration immediately after administration of the stimulus was 100 ng/mL, and the ratiometric changes in expression, in relation to pre-administration levels, were monitored for each stimulus 2 and 6 hours after administration. […]\nThe responses were monitored at 2, 6, and 24 hours after administration. […]"}, "[8]": {"conditions": "10 stable rheumatoid arthritis patients treated with Enbrel (FIG. 22)"}},
  "data": [
    {"molecule": "CN(Cc1cnc2nc(N)nc(N)c2n1)c1ccc(C(=O)N[C@@H](CCC(=O)O)C(=O)O)cc1", "note": "[methotrexate]", "values": [
      {"measurement": "inflammation index", "setting": "[1]; 10 stable rheumatoid arthritis patients treated with methotrexate (FIG. 21)", "value": "elevated compared to normal"},
      {"measurement": "inflammation index values in comparison to the normal distribution", "setting": "[1]; rheumatoid arthritis patients treated with MTX who are about to change therapy (FIG. 17C)", "value": "skewed upward"}
    ]},
    {"molecule": "C[C@]12C=CC(=O)C=C1CC[C@@H]1[C@@H]2C(=O)C[C@@]2(C)[C@H]1CC[C@]2(O)C(=O)CO", "note": "[prednisone]", "values": [
      {"measurement": "acute inflammation index", "setting": "[2]", "value": "goes up"},
      {"measurement": "inflammatory gene expression relative to baseline", "setting": "[3]; 2 hr post dose", "value": "decreased expression of most of inflammation-related gene loci"},
      {"measurement": "inflammatory gene expression relative to baseline", "setting": "[3]; 24 hr post dose, loci reduced at 2 hours", "value": "elevated gene expression levels"},
      {"measurement": "inhibitory effect on gene expression of the 5 loci", "setting": "[4]; 24 hours post administration", "value": "no longer apparent"},
      {"measurement": "number of the 5 loci with gene expression higher than at t=0 (rebound effect)", "setting": "[4]; 24 hours post administration", "value": 3},
      {"measurement": "gene expression of the 5 loci in relation to t=0", "setting": "[4]; two-hour sample", "value": "dramatically reduced gene expression"}
    ]},
    {"molecule": "Enbrel", "values": [
      {"measurement": "inflammation index", "setting": "[1]; [8]", "value": "comes much closer to normal"},
      {"measurement": "patients with inflammation index in the normal range", "setting": "[1]; [8]", "value": 80, "unit": "%"}
    ]},
    {"molecule": "Remicade: another TNF inhibitor", "values": [
      {"measurement": "inflammation index", "setting": "[1]; 10 stable rheumatoid arthritis patients treated with Remicade (FIG. 23), all but one of the patients", "value": "at or below normal"},
      {"measurement": "inflammation index suggesting immunosuppressive response", "setting": "[1]; two of the 10 rheumatoid arthritis patients treated with Remicade (FIG. 23)", "value": "abnormally low inflammation index"},
      {"measurement": "inflammation index", "setting": "[5]; 24 hours after the first treatment", "value": "returned to the normal range"},
      {"measurement": "inflammation index", "setting": "[5]; just prior to the second dose", "value": "elevated"},
      {"measurement": "inflammation index", "setting": "[5]; prior to the third dose", "value": "in the normal range"},
      {"measurement": "infections in treated subjects", "setting": "[6]", "value": "associated with serious infections in some subjects"}
    ]},
    {"molecule": "polymyxin B", "values": [
      {"measurement": "effect on the response of IL1B locus to E. coli filtrate", "setting": "[7]", "value": "did not affect the response"}
    ]}
  ]
}
